Among the data in US20220281888A1, “BICYCLIC CARBOXYLATES AS MODULATORS OF TRANSPORTERS AND USES THEREOF” (NIROGY THERAPEUTICS, INC., priority 2019, published 2022) are IC50 values, retold here.

Assay [1] relates to monocarboxylate transporters. Kind of assay: Lactate detection assay in tumor cell lines. The format is cell-based. The following applies: intracellular lactate, Lactate-glo kit, 24 hours incubation; cell line not stated. How it is done:
Cells are maintained in their appropriate growth medium (RPMI medium with 2 g/L glucose, 2 mM L-glutamine supplemented with 10% FBS and P/S (growth medium). 15,000-25,000 cells were seeded into white 96-well plates in growth medium and incubated for 24 hours at 37° C. and 5% CO2. A duplicate plate was also seeded for normalization by an MTS assay. Dry weight compound stocks were dissolved to a concentration of 10 mM in 100% DMSO. Compounds were further diluted in the assay medium (Lactate media: 10 mM lactate, 5% FBS, and 1×P/S; Glucose media: RPMI, 5% FBS, and 1×P/S). Growth media was changed 24 hours later to assay medium containing 10 μM compound or vehicle (DMSO) control and incubated for 24 hours. Conditioned media was collected and the cells were washed in 200 μL ice-cold PBS. […] After a 5 minute incubation, 12.5 μL Neutralization solution (1 M Trizma) is incubated for 1 minute. Intracellular lactate measurements were performed using a Lactate-glo kit (Promega). Briefly, the lactate detection reagent is mixed immediately before use and 50 μL is pipetted into each well and incubated at room temperature for 1 hour. Lactate is oxidized by enzymatic reactions to generate light. The luminescence is recorded using a Spectramax M5e plate reader and the concentration of lactate is determined using a known concentration of spiked lactate in PBS using GraphPad Prism.

For assay [2], the system named is panel of solid and haematological tumor cell lines (e.g., Hs578t, SiHa, MDA-MB-231). In words: MTS cell proliferation assay. The format is cell-based. The following applies: 72-96 hours incubation, 10 mM lactate medium or RPMI 1640 medium, cell line not given, read-out: Cytotoxicity [IC50: μM]. As to the method: The anti-proliferation effect of MCT inhibition was investigated across a panel of solid and haematological tumor cell lines. Cells were routinely cultured in their appropriate growth medium. On day 1, between 10,000-25,000 cells/well (e.g., Hs578t: 15,000 cells/well, SiHa: 10,000 cells/well, and MDA-MB-231: 25,000 cells/well) were plated into 96-well plates. 100 μL of phosphate buffered saline solution was added to the external wells to prevent media evaporation. Plates were incubated in growth medium overnight at 37° C. in the presence of 5% CO2. On day 2, dry weight compound stocks were dissolved to a concentration of 10 mM in 100% DMSO. Compounds were further diluted in the assay medium; 10 mM lactate medium (without glucose, pyruvate, and glutamine) or RPMI 1640 medium (without pyruvate and glutamine) to generate a final dose range of 1 nM to 10 μM. Growth medium in the 96-well plate was replaced with the assay medium (10 mM lactate medium or RPMI medium or appropriate medium), and compounds were added to each well in the plate at different concentrations via serial dilution or pre-prepared solutions in assay medium. […] The absorbance of the plates was read on a Spectramax M5e plate reader using […] measurement wavelength. Dose response curves were plotted and IC50 values were calculated using GraphPad Prism. […]
For orientation: Tetrazolium assays rely on reduction of a dye to a coloured formazan, in cell work by metabolically active cells.

Regarding `CN(C(=O)NC1CCCCC1)c1cc2oc(=O)c(C(=O)O)cc2s1` [Example 7, 2-(3-cyclohexyl-1-methylureido)-5-oxo-5H-thieno[3,2-b]pyran-6-carboxylic acid], the 50% inhibitory concentration (IC50) (in general, the midpoint of a concentration-inhibition curve) in assay [1] is < 1 µM. Still for that read-out and setting: as for `CCOc1ccccc1NC(=O)N(C)c1cc2oc(=O)c(C(=O)O)cc2s1` [Example 10, 2-(3-(2-ethoxyphenyl)-1-methylureido)-5-oxo-5H-thieno[3,2-b]pyran-6-carboxylic acid], the figure is < 1 µM. On to `COc1cc(Cl)ccc1NC(=O)N(C)c1cc2oc(=O)c(C(=O)O)cc2s1` [Example 18, 2-(3-(4-chloro-2-methoxyphenyl)-1-methylureido)-5-oxo-5H-thieno[3,2-b]pyran-6-carboxylic acid], for which the half-inhibitory concentration (IC50) in assay [2] was < 1 µM. The same measure, in the same setting: then `CN(C(=O)Nc1ccc(Cl)c(Cl)c1)c1cc2oc(=O)c(C(=O)O)cc2s1` [Example 39, 2-(3-(3,4-dichlorophenyl)-1-methylureido)-5-oxo-5H-thieno[3,2-b]pyran-6-carboxylic acid], with < 1 µM.
